Legend:
[1] = system: BESM host cells (bovine embryo skeletal muscle), cytotoxicity; assay: T. cruzi intracellular amastigote growth inhibition, dose response, imaging, CA-I/72 strain, bovine embryo skeletal muscle, dry powder (AID 651885); conditions: T. cruzi CA-I/72 amastigotes in BESM cells, imaging, 72 h; measured here: host BESM cell toxicity
[2] = system: T. cruzi CA-I/72 amastigotes in BESM cells, imaging, 72 h; assay: as above; conditions: for IC90: measured here: parasite IC90, test 4; for IC99: measured here: parasite IC99, test 4

Q: C[C@@H]1CN([C@@H](C)CO)C(=O)c2cccc(NC(=O)c3ccncc3)c2O[C@@H]1CN(C)Cc1ccc(Oc2ccccc2)cc1 was tested. Which IC50 [1] did it give?
A: Its IC50 is greater than 20 µM.

Q: How did the IC50 [1] turn out when CC(C)N1C[C@H](C)[C@@H](CN(C)C(=O)OC(C)(C)C)Oc2c(C(=O)Nc3ccncc3)cccc2C1=O was run?
A: Its IC50 is greater than 20 µM.

Q: Which IC50 [1] does the source give for C[C@H]1CN([C@@H](C)CO)C(=O)c2cccc(NC(=O)c3ccncc3)c2O[C@@H]1CN(C)Cc1ccc(C(F)(F)F)cc1 here?
A: The IC50 was greater than 20 µM.

Q: CC(C)N(C)C(=O)c1cccc(NC(=O)c2ccncc2)c1OCCCN(C)Cc1ccc(Cl)cc1 was tested. Which IC50 [1] did it give?
A: The IC50 was greater than 20 µM.

Q: For CC(C)N1C[C@H](C)[C@@H](CN(C)C(=O)OC(C)(C)C)Oc2c(NC(=O)c3cccnc3)cccc2C1=O, which IC50 [1] is on record?
A: The IC50 was greater than 20 µM.

Q: With C[C@@H]1CN([C@@H](C)CO)C(=O)c2cccc(NC(=O)c3ccncc3)c2O[C@H]1CN(C)Cc1ccc(Cl)cc1 as the compound, how does the IC50 [1] read?
A: The IC50 was greater than 20 µM.

Q: CC(C)N1C[C@H](C)[C@@H](CN(C)Cc2ccc(Cl)cc2)Oc2c(NC(=O)c3ccncc3)cccc2C1=O was tested. Which IC50 [1] did it give?
A: The IC50 was greater than 20 µM.

Q: Which IC90 [2] does the source give for C[C@@H]1CN([C@H](C)CO)C(=O)c2cccc(NC(=O)c3ccncc3)c2O[C@H]1CN(C)Cc1ccc(C(F)(F)F)cc1 here?
A: The IC90 was 0.472 µM.

Q: And the IC99 [2]?
A: The IC99 was 4.75 µM.

Q: What about the IC50 [1] of the same compound?
A: The IC50 was greater than 20 µM.

Q: C[C@H]1CN([C@@H](C)CO)C(=O)c2cccc(NC(=O)c3ccncc3)c2O[C@@H]1CN(C)Cc1ccc(C(=O)O)cc1 was tested. Which IC50 [1] did it give?
A: Its IC50 is greater than 20 µM.

Q: Which IC50 [1] does the source give for CC(C)N1C[C@H](C)[C@@H](CN(C)C(=O)OC(C)(C)C)Oc2c(NC(=O)c3ccncc3)cccc2C1=O here?
A: Its IC50 is greater than 20 µM.

Q: C[C@H](CO)N1C[C@H](C)[C@@H](CN(C)Cc2ccc(Oc3ccccc3)cc2)Oc2c(NC(=O)c3ccncc3)cccc2C1=O was tested. Which IC50 [1] did it give?
A: The IC50 was greater than 20 µM.

Q: With COc1ccc(CN(C)C[C@@H]2Oc3c(NC(=O)c4ccncc4)cccc3C(=O)N([C@@H](C)CO)C[C@H]2C)cc1 as the compound, how does the IC90 [2] read?
A: The IC90 was 1.58 µM.

Q: And the IC99 [2]?
A: The IC99 was 15.9 µM.

Q: And the IC50 [1]?
A: Its IC50 is greater than 20 µM.

Q: Which results are given for C[C@@H]1CN([C@@H](C)CO)C(=O)c2cccc(NC(=O)c3ccncc3)c2O[C@H]1CN(C)CC1CCCCC1?
A: IC90 [2]: 6.03 µM; IC99 [2]: 63.4 µM; IC50 [1]: > 20 µM

Q: With C[C@@H]1CN([C@@H](C)CO)C(=O)c2cccc(NC(=O)c3ccncc3)c2O[C@H]1CN(C)C as the compound, how does the IC50 [1] read?
A: Its IC50 is greater than 20 µM.

Q: C[C@H]1CN([C@@H](C)CO)C(=O)c2cccc(NC(=O)c3ccncc3)c2O[C@@H]1CN(C)Cc1ccc(Oc2ccccc2)cc1 was tested. Which IC50 [1] did it give?
A: The IC50 was greater than 20 µM.

Q: How did the IC50 [1] turn out when COc1ccc(CN(C)C[C@H]2Oc3c(NC(=O)c4ccncc4)cccc3C(=O)N([C@@H](C)CO)C[C@@H]2C)cc1 was run?
A: The IC50 was 15.3 µM.

Q: With C[C@@H]1CN([C@H](C)CO)C(=O)c2cccc(NC(=O)c3ccncc3)c2O[C@@H]1CN(C)Cc1ccc(Oc2ccccc2)cc1 as the compound, how does the IC90 [2] read?
A: Its IC90 is 30.7 µM.

Q: What about the IC99 [2] of the same compound?
A: Its IC99 is 238 µM.

Q: What about the IC50 [1] of the same compound?
A: Its IC50 is greater than 20 µM.

Q: How did the IC50 [1] turn out when CCCn1ncc(CN2CCCC(C(=O)c3cccc(OC(C)C)c3)C2)c1C (stereo not drawn) was run?
A: The IC50 was greater than 20 µM.

Q: Which IC50 [1] does the source give for C[C@@H]1CN([C@@H](C)CO)C(=O)c2cc(-c3cccnc3)cnc2O[C@H]1CN(C)Cc1ccc(Oc2ccccc2)cc1 here?
A: Its IC50 is greater than 20 µM.

Q: Which IC50 [1] does the source give for C[C@H]1CN([C@@H](C)CO)C(=O)c2cccc(NC(=O)c3ccncc3)c2O[C@@H]1CN(C)Cc1ccc(Cl)c(Cl)c1 here?
A: The IC50 was greater than 20 µM.

Q: For CNC[C@H]1Oc2c(NC(=O)c3ccccc3)cccc2C(=O)N(C(C)C)C[C@@H]1C, which IC50 [1] is on record?
A: The IC50 was greater than 20 µM.

Q: For CC(C)N1C[C@H](C)[C@@H](CN(C)Cc2ccccc2Cl)Oc2c(NC(=O)c3ccncc3)cccc2C1=O, which IC50 [1] is on record?
A: Its IC50 is greater than 20 µM.

Q: CC(C)N1C[C@H](C)[C@@H](CN(C)Cc2cccc(Cl)c2)Oc2c(NC(=O)c3ccncc3)cccc2C1=O was tested. Which IC50 [1] did it give?
A: The IC50 was 19.1 µM.

Q: For C[C@@H]1CN([C@@H](C)CO)C(=O)c2cc(-c3cncnc3)cnc2O[C@H]1CN(C)Cc1ccc(Oc2ccccc2)cc1, which IC50 [1] is on record?
A: Its IC50 is greater than 20 µM.

Q: For C[C@@H]1CN([C@@H](C)CO)C(=O)c2cccc(NC(=O)c3ccncc3)c2O[C@H]1CN(C)Cc1ccc(Oc2ccccc2)cc1, which IC50 [2] is on record?
A: The IC50 was 0.011 µM.

Q: And the IC90 [2]?
A: The IC90 was 0.108 µM.

Q: What about the IC99 [2] of the same compound?
A: Its IC99 is 1.19 µM.

Q: And the IC50 [1]?
A: Its IC50 is greater than 20 µM.

Q: For CC(C)N1C[C@H](C)[C@@H](CN(C)C(=O)OC(C)(C)C)Oc2c(C#N)cccc2C1=O, which IC50 [1] is on record?
A: The IC50 was greater than 20 µM.

Q: C[C@@H]1CN([C@@H](C)CO)C(=O)c2cccc(NC(=O)c3ccncc3)c2O[C@H]1CN(C)Cc1ccccc1Cl was tested. Which IC50 [1] did it give?
A: The IC50 was greater than 20 µM.

Q: For CC(C)N1C[C@H](C)[C@@H](CN(C)C(=O)OC(C)(C)C)Oc2c(C(=O)O)cccc2C1=O, which IC50 [1] is on record?
A: The IC50 was greater than 20 µM.

Q: For CC(C)N1C[C@H](C)[C@@H](CN(C)Cc2ccc(Oc3ccccc3)cc2)Oc2c(NC(=O)c3ccccc3)cccc2C1=O, which IC50 [1] is on record?
A: Its IC50 is 16.1 µM.

Q: With C[C@@H]1CN([C@@H](C)CO)C(=O)c2cccc(NC(=O)c3ccncc3)c2O[C@H]1CN(C)Cc1ccc(-c2ccccc2)cc1 as the compound, how does the IC50 [1] read?
A: Its IC50 is greater than 20 µM.

Q: With CC(C)N1C[C@H](C)[C@@H](CN(C)Cc2ccc(Oc3ccccc3)cc2)Oc2c(NC(=O)c3ccncc3)cccc2C1=O as the compound, how does the IC50 [1] read?
A: The IC50 was greater than 20 µM.

Q: With C[C@@H]1CN([C@H](C)CO)C(=O)c2cccc(NC(=O)c3ccncc3)c2O[C@H]1CN(C)Cc1ccc2c(c1)OCO2 as the compound, how does the IC50 [1] read?
A: The IC50 was greater than 20 µM.

Q: How did the IC50 [1] turn out when CC(C)N1C[C@H](C)[C@@H](CN(C)Cc2ccccc2)Oc2c(NC(=O)c3ccncc3)cccc2C1=O was run?
A: The IC50 was greater than 20 µM.

Q: How did the IC50 [1] turn out when C[C@H]1CN([C@@H](C)CO)C(=O)c2cccc(NC(=O)c3ccncc3)c2O[C@@H]1CN(C)Cc1ccncc1 was run?
A: The IC50 was greater than 20 µM.

Q: Which IC50 [1] does the source give for C[C@@H]1CN([C@@H](C)CO)C(=O)c2cccc(NC(=O)c3ccncc3)c2O[C@H]1CN(C)Cc1ccc(C(=O)O)cc1 here?
A: The IC50 was greater than 20 µM.

Q: For CNC[C@@H]1Oc2c(NC(=O)c3ccncc3)cccc2C(=O)N(C(C)C)C[C@H]1C, which IC50 [1] is on record?
A: Its IC50 is greater than 20 µM.

Q: Which IC50 [1] does the source give for CC(C)N1C[C@H](C)[C@@H](CN(C)C(=O)OC(C)(C)C)Oc2c(NC(=O)c3ccccc3)cccc2C1=O here?
A: Its IC50 is greater than 20 µM.

Q: With C[C@H]1CN([C@@H](C)CO)C(=O)c2cccc(NC(=O)c3ccncc3)c2O[C@@H]1CN(C)Cc1ccccc1 as the compound, how does the IC50 [1] read?
A: Its IC50 is greater than 20 µM.

Q: What does the source list for C[C@@H]1CN([C@H](C)CO)C(=O)c2cccc(NC(=O)c3ccncc3)c2O[C@H]1CN(C)Cc1ccc(Oc2ccccc2)cc1?
A: IC90 [2]: 0.45 µM; IC99 [2]: 4.95 µM; IC50 [1]: > 20 µM

Q: Which IC50 [1] does the source give for C[C@@H]1CN([C@@H](C)CO)C(=O)c2cccc(NC(=O)c3ccncc3)c2O[C@H]1CN(C)Cc1cccc(Cl)c1 here?
A: The IC50 was greater than 20 µM.

Q: With C[C@H](CO)N1C[C@H](C)[C@H](CN(C)Cc2ccc(Oc3ccccc3)cc2)Oc2c(NC(=O)c3ccncc3)cccc2C1=O as the compound, how does the IC50 [1] read?
A: Its IC50 is greater than 20 µM.

Q: Which IC50 [1] does the source give for C[C@@H]1CN([C@@H](C)CO)C(=O)c2cc(-c3ccncc3)cnc2O[C@H]1CN(C)Cc1ccc(Oc2ccccc2)cc1 here?
A: Its IC50 is 5 µM.

Q: For COc1ccc(CCN(C)C(=O)C2CCCN(Cc3ccc(OC)c(OC)c3)C2)cc1OC (stereo not drawn), which IC50 [1] is on record?
A: The IC50 was greater than 20 µM.

Q: With C[C@@H]1CN([C@@H](C)CO)C(=O)c2cccc(NC(=O)c3ccncc3)c2O[C@H]1CN(C)Cc1ccc2c(c1)OCO2 as the compound, how does the IC90 [2] read?
A: Its IC90 is 0.921 µM.

Q: What about the IC99 [2] of the same compound?
A: The IC99 was 7.92 µM.

Q: What about the IC50 [1] of the same compound?
A: The IC50 was greater than 20 µM.

Q: For C[C@H]1CN([C@@H](C)CO)C(=O)c2cccc(NC(=O)c3ccncc3)c2O[C@H]1CN(C)Cc1ccc(Oc2ccccc2)cc1, which IC50 [1] is on record?
A: Its IC50 is greater than 20 µM.

Q: Which IC50 [1] does the source give for Cc1cc(C(=O)Nc2cccc3c2O[C@@H](CN(C)Cc2ccc(Oc4ccccc4)cc2)[C@H](C)CN([C@@H](C)CO)C3=O)n(C)n1 here?
A: Its IC50 is greater than 20 µM.

Q: How did the IC50 [1] turn out when C[C@H]1CN([C@@H](C)CO)C(=O)c2cccc(NC(=O)c3ccncc3)c2O[C@@H]1CN(C)Cc1ccc(C(=O)Nc2ccccc2N)cc1 was run?
A: Its IC50 is greater than 20 µM.

Q: For C[C@@H]1CN([C@@H](C)CO)C(=O)c2cccc(NC(=O)c3cnccn3)c2O[C@H]1CN(C)Cc1ccc(Oc2ccccc2)cc1, which IC50 [1] is on record?
A: Its IC50 is greater than 20 µM.

Q: C[C@@H]1CN([C@H](C)CO)C(=O)c2cccc(NC(=O)c3ccncc3)c2O[C@H]1CN(C)Cc1ccccc1 was tested. Which IC50 [1] did it give?
A: Its IC50 is greater than 20 µM.

Q: For C[C@@H]1CN([C@@H](C)CO)C(=O)c2cc(Br)cnc2O[C@H]1CN(C)Cc1ccc2c(c1)OCO2, which IC50 [1] is on record?
A: Its IC50 is greater than 20 µM.

Q: With C[C@@H]1CN([C@H](C)CO)C(=O)c2cccc(NC(=O)c3ccncc3)c2O[C@H]1CN(C)CC1CCCCC1 as the compound, how does the IC90 [2] read?
A: Its IC90 is 28.5 µM.

Q: What about the IC99 [2] of the same compound?
A: The IC99 was 158 µM.

Q: What about the IC50 [1] of the same compound?
A: Its IC50 is greater than 20 µM.

Reference: PubChem BioAssay AID651885 (Broad Institute, 2012)
